Assay results as given in paper PMC9927415, “Tyrosine Kinase Inhibitors Display Potent Activity against Cryptosporidium parvum” (Microbiology Spectrum, 2022).

What was measured:
Assay in all cases: KINOMEscan competitive binding
SRC = molecular target: T1, SRC (Homo sapiens, UniProt P12931); conditions: n=1, read-out: Percent inhibition, SRC
T1 construct: purchased DiscoverX (KINOMEscan)

TRKB = molecular target: T2, TRKB (Homo sapiens, UniProt Q16620); conditions: n=1, read-out: Percent inhibition, TRKB
T2 construct: purchased DiscoverX (KINOMEscan)

TNNI3K = molecular target: T3, TNNI3K (Homo sapiens, UniProt Q59H18); conditions: n=1, read-out: Percent inhibition, TNNI3K
T3 construct: purchased DiscoverX (KINOMEscan)
T3 sequence (Q59H18 1-835): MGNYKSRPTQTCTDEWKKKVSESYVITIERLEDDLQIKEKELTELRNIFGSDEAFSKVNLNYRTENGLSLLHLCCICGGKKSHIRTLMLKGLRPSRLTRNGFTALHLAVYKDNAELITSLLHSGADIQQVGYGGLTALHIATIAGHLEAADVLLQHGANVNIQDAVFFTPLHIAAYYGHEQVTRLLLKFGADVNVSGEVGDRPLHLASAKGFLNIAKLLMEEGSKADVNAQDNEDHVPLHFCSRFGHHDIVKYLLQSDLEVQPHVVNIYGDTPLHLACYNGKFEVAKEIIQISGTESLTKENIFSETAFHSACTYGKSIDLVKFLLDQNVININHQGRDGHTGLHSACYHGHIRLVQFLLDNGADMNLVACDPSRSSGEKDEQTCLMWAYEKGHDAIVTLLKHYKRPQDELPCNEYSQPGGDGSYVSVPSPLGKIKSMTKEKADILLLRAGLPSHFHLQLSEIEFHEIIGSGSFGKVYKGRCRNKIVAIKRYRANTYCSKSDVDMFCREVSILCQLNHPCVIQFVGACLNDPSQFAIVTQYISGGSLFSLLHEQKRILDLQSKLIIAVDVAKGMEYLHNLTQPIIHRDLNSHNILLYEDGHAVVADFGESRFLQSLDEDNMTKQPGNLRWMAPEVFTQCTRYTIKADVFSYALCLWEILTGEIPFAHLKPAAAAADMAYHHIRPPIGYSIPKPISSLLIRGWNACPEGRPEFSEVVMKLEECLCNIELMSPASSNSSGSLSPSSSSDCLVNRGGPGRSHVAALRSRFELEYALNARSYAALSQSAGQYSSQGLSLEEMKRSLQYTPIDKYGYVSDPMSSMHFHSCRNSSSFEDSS

PRKX = molecular target: T4, PRKX (Homo sapiens, UniProt P51817); conditions: n=1, read-out: Percent inhibition, PRKX
T4 construct: purchased DiscoverX (KINOMEscan)
T4 sequence (P51817 1-358): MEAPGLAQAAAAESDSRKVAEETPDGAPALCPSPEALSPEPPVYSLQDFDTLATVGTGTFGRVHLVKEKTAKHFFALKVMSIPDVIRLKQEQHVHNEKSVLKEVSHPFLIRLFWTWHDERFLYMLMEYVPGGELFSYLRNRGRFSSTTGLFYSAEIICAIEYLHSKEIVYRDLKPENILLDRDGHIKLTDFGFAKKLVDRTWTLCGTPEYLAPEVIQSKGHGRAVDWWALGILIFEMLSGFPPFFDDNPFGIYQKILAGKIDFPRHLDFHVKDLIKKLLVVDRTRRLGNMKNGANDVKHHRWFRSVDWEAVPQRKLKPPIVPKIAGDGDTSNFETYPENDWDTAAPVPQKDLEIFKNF

PLK3 = molecular target: T5, PLK3 (Homo sapiens, UniProt Q9H4B4); conditions: n=1, read-out: Percent inhibition, PLK3
T5 construct: purchased DiscoverX (KINOMEscan)

TESK1 = molecular target: T6, TESK1 (Homo sapiens, UniProt Q15569); conditions: n=1, read-out: Percent inhibition, TESK1
T6 construct: purchased DiscoverX (KINOMEscan)

RPS6KA3(Kin.Dom.1) = molecular target: T7, RPS6KA3(Kin.Dom.1) (Homo sapiens, UniProt P51812); conditions: n=1, read-out: Percent inhibition, RPS6KA3(Kin.Dom.1)
T7 construct: RPS6KA3(Kin.Dom.1); purchased DiscoverX (KINOMEscan)

TYRO3 = molecular target: T8, TYRO3 (Homo sapiens, UniProt Q06418); conditions: n=1, read-out: Percent inhibition, TYRO3
T8 construct: purchased DiscoverX (KINOMEscan)
T8 sequence (Q06418 41-890): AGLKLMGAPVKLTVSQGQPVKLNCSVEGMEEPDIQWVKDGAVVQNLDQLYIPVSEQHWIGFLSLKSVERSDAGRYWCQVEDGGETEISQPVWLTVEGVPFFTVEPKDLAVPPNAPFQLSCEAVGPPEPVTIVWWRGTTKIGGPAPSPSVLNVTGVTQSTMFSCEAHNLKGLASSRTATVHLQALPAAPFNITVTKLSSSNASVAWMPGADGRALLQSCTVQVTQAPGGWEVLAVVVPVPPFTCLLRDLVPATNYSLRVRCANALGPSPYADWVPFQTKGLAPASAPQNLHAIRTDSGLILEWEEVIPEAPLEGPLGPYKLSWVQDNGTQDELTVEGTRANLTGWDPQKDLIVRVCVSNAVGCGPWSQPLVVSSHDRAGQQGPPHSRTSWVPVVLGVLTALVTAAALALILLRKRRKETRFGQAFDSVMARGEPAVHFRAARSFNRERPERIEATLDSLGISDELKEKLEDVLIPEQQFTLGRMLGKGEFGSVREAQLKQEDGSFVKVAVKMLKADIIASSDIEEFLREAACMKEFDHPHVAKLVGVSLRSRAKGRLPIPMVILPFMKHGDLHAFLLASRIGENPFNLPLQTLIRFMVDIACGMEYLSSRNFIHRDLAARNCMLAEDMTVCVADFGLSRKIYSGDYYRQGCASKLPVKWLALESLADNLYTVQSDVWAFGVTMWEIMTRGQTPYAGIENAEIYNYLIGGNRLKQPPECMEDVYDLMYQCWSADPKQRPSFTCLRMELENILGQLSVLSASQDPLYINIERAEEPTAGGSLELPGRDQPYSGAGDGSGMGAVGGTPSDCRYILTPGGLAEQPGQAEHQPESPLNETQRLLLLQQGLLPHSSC

ROS1 = molecular target: T9, ROS1 (Homo sapiens, UniProt P08922); conditions: n=1, read-out: Percent inhibition, ROS1
T9 construct: purchased DiscoverX (KINOMEscan)
T9 sequence (P08922 28-2347): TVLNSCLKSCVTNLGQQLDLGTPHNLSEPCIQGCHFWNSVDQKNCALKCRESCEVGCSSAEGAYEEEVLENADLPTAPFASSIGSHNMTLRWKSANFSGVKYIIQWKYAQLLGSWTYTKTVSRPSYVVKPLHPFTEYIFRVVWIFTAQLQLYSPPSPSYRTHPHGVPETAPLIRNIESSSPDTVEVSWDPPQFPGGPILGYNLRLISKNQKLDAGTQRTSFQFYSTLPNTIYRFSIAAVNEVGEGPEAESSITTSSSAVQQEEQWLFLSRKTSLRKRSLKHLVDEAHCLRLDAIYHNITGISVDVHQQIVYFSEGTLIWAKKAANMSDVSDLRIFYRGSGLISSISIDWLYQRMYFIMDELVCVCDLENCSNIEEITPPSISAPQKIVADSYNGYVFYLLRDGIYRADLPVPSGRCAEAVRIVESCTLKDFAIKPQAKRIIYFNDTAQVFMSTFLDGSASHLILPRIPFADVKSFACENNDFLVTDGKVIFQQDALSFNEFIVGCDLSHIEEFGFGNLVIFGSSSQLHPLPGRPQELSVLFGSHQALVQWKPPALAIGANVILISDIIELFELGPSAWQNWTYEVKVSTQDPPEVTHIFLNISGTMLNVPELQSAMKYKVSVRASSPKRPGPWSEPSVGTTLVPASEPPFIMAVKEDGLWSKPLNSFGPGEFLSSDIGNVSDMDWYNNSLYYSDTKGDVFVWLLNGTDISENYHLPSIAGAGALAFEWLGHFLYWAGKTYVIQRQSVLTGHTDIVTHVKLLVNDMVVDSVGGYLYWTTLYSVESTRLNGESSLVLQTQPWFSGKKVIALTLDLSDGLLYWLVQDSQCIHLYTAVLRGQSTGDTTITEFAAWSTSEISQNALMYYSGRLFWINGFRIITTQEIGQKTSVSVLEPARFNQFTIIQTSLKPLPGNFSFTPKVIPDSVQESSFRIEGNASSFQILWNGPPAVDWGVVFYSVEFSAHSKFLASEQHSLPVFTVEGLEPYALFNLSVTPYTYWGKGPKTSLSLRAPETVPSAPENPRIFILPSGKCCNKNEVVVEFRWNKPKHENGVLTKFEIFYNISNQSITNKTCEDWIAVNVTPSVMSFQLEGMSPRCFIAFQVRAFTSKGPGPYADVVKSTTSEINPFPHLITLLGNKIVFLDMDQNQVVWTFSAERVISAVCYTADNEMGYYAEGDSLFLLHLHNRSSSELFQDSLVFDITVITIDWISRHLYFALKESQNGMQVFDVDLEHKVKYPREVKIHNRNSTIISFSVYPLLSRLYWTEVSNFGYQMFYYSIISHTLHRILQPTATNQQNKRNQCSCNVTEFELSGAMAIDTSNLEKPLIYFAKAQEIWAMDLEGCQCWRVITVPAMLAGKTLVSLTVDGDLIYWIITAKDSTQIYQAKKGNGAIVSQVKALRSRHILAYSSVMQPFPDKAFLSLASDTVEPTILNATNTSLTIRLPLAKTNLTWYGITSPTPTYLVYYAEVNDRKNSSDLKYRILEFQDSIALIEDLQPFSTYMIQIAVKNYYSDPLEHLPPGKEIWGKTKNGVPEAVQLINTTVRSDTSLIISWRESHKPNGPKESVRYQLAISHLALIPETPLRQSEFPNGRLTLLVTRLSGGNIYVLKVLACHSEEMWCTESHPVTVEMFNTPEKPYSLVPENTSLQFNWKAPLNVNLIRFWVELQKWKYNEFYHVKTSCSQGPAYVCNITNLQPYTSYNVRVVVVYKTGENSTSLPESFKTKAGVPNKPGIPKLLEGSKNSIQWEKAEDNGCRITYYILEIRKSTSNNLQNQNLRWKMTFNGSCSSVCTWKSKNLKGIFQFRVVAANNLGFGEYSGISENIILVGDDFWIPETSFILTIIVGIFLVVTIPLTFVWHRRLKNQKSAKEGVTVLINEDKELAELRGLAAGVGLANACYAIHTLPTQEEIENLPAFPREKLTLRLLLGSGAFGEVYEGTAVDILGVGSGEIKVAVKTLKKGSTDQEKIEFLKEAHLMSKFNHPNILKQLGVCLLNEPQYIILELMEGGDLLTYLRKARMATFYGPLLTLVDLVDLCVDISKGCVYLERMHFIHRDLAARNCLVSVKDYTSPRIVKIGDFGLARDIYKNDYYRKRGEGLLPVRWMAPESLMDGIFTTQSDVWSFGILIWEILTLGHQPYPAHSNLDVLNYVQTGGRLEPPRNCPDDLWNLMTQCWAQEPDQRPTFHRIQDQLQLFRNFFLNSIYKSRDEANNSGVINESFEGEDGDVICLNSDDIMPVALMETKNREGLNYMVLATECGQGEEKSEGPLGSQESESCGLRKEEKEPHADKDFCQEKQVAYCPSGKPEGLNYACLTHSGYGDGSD

T7 sequence (P51812 1-397 limits assumed): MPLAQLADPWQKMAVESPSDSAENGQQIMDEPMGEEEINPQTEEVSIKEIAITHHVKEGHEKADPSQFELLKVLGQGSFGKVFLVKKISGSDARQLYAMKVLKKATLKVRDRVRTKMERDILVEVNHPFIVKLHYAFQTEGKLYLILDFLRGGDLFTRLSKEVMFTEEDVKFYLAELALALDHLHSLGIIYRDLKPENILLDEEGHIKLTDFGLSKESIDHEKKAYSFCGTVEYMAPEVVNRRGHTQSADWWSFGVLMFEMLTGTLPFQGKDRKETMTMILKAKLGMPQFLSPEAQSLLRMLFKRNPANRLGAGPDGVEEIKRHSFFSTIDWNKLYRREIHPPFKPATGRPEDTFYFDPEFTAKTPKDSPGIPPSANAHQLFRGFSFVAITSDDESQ
T5 sequence (Q9H4B4 whole entry): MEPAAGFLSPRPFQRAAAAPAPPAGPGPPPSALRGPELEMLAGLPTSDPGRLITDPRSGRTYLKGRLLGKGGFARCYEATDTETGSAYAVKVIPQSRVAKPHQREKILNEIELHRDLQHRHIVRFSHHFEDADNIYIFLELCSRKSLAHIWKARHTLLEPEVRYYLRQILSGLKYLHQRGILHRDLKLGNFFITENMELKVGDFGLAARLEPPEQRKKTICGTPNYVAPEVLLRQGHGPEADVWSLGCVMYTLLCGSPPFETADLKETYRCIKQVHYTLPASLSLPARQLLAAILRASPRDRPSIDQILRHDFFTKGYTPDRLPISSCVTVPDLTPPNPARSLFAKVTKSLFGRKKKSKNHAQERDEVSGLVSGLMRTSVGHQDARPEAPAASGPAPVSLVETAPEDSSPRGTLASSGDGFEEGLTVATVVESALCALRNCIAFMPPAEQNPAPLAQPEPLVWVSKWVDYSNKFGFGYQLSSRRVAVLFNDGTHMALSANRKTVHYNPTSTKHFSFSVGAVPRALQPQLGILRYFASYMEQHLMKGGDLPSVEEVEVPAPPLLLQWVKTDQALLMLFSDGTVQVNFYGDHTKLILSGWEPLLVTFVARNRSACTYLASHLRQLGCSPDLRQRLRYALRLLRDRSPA
T2 sequence (Q16620 32-822): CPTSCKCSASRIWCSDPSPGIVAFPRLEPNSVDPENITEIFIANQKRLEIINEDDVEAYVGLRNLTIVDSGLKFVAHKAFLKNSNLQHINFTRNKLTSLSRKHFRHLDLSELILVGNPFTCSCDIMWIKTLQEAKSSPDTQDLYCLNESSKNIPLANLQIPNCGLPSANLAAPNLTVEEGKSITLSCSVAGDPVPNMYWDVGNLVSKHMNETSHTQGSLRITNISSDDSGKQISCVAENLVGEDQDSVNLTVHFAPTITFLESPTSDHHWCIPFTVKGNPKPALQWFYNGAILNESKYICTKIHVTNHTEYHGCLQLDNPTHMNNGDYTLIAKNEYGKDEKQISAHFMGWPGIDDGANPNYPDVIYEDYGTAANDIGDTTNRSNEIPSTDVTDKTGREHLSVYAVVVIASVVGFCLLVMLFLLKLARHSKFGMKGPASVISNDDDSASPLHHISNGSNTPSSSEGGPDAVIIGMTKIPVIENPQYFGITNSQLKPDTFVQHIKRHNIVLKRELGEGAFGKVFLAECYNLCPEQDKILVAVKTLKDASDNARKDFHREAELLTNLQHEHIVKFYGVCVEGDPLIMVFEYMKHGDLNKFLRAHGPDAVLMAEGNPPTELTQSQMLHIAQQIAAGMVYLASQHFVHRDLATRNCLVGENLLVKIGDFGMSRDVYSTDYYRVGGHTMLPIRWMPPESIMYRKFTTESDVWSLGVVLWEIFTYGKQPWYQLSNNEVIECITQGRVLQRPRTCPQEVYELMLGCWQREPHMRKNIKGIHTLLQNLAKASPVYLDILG
T6 sequence (Q15569 whole entry): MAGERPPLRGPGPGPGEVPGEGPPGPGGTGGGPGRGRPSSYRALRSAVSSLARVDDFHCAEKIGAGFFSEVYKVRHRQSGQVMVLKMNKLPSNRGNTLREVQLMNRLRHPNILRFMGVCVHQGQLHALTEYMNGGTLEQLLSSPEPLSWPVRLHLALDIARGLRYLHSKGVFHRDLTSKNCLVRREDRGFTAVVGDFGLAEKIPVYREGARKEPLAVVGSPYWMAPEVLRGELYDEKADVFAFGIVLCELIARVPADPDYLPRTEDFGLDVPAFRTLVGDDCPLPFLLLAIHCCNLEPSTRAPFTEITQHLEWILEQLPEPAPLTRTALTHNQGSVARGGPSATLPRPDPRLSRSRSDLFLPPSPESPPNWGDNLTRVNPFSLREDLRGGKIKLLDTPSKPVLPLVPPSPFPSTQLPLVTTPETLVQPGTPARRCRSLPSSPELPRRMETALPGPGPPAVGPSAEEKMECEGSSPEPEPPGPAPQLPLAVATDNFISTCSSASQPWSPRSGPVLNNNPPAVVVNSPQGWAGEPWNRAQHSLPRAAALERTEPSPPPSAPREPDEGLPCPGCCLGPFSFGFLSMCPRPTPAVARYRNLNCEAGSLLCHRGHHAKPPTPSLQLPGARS

Compound | inhibition at 10 µM (SRC) [%] | inhibition at 10 µM (TRKB) [%] | inhibition at 10 µM (TNNI3K) [%] | inhibition at 10 µM (PRKX) [%] | inhibition at 10 µM (PLK3) [%] | inhibition at 10 µM (TESK1) [%] | inhibition at 10 µM (RPS6KA3(Kin.Dom.1)) [%] | inhibition at 10 µM (TYRO3) [%] | inhibition at 10 µM (ROS1) [%]
CN1CCN(c2ccc(Nc3nccc(-c4cnn5ncccc45)n3)cc2C#N)CC1 [Compound 1] | 99.2 | 96.5 | 0 | 0 | 0 | 0 | 86 | 70.2 | 91.9
COc1ccc(Nc2nccc(-c3cnn4ncccc34)n2)cc1 [Compound 2] | 85 | 0 | 0 | 0 | 0 | 0 | 0 | 0 | 90.3
Cc1ccc(O)cc1Nc1ccnc(Nc2cccc(C(N)=O)c2)n1 [Compound 3] | 100 | 0 | 99.9 | 0 | 79 | 0 | 0 | 100 | 0
Cc1ccc(O)cc1N(C)c1ccnc(Nc2cccc(S(N)(=O)=O)c2)n1 [Compound 4] | 100 | 91.7 | 100 | 0 | 0 | 79.9 | 0 | 100 | 90
Fc1cccc(COc2ccc(Nc3ncnc4c3CN(CCN3CCOCC3)CC4)cc2Cl)c1 [Compound 6] | 0 | 0 | 0 | 0 | 0 | 0 | 0 | 0 | 0
COc1cc(Nc2nccc(-c3sc(N)nc3-c3cccc(NC(=O)c4c(F)cccc4F)c3)n2)cc(OC)c1OC [Compound 7] | 100 | 0 | 100 | 0 | 99.8 | 100 | 99.8 | 100 | 80.6
C[C@@H](Oc1cc(-c2cnc3ccccn23)sc1C(N)=O)c1ccccc1Cl [Compound 8] | 0 | 0 | 0 | 0 | 95.6 | 0 | 0 | 0 | 0
c1ccc(COc2cccc(-c3ccnc4[nH]ccc34)c2)cc1 [Compound 9] | 0 | 0 | 0 | 0 | 0 | 0 | 0 | 0 | 0
Clc1ccc(Nc2ncc(-c3ccccc3)s2)cc1 [Compound 10] | 0 | 0 | 86 | 0 | 0 | 0 | 0 | 0 | 0
Nc1ncc2c(-c3ccncc3)c[nH]c2n1 [Compound 11] | 93.3 | 0 | 0 | 0 | 0 | 0 | 0 | 0 | 0
